# Results as given in the supplement of paper PMC11451515.
# Tested on: NOMO1
# Experiment: cell viability relative to DMSO control; higher = less cytotoxic
# Conditions: 48 h
# Outline: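 NOMO1 or SEM (500 cells/well) or P12-Ichikawa (1000 cells/well) leukemia cells were adapted for at least four passages in each medium. They were seeded in 1536-well plates (5 μl) and pin-dosed with library compounds in DMSO over an 11-point threefold series, 47 μM to 0.79 nM. CellTiter-Glo One luminescence was read after 48 h at 37°C. Viability is the per-plate percentage relative to DMSO wells, with cell-free wells as background.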
# [1] = HPLM + 10% dialyzed FBS, 0.000781 µM
# [2] = HPLM + 10% dialyzed FBS, 0.00234 µM
# [3] = HPLM + 10% dialyzed FBS, 0.00702 µM
# [4] = HPLM + 10% dialyzed FBS, 0.0211 µM
# [5] = HPLM + 10% dialyzed FBS, 0.0632 µM
# [6] = HPLM + 10% dialyzed FBS, 0.19 µM
# [7] = HPLM + 10% dialyzed FBS, 0.569 µM
# [8] = HPLM + 10% dialyzed FBS, 1.71 µM
# [9] = HPLM + 10% dialyzed FBS, 5.12 µM
# [10] = HPLM + 10% dialyzed FBS, 15.4 µM
# [11] = HPLM + 10% dialyzed FBS, 46.1 µM
# [12] = RPMI 5 mM glucose + 10% FBS, 0.000781 µM
# [13] = RPMI 5 mM glucose + 10% FBS, 0.00234 µM
# [14] = RPMI 5 mM glucose + 10% FBS, 0.00702 µM
# [15] = RPMI 5 mM glucose + 10% FBS, 0.0211 µM
# [16] = RPMI 5 mM glucose + 10% FBS, 0.0632 µM
# [17] = RPMI 5 mM glucose + 10% FBS, 0.19 µM
# [18] = RPMI 5 mM glucose + 10% FBS, 0.569 µM
# [19] = RPMI 5 mM glucose + 10% FBS, 1.71 µM
# [20] = RPMI 5 mM glucose + 10% FBS, 5.12 µM
# [21] = RPMI 5 mM glucose + 10% FBS, 15.4 µM
# [22] = RPMI 5 mM glucose + 10% FBS, 46.1 µM
# [23] = RPMI 5 mM glucose + 10% dialyzed FBS, 0.000781 µM
# [24] = RPMI 5 mM glucose + 10% dialyzed FBS, 0.00234 µM
# [25] = RPMI 5 mM glucose + 10% dialyzed FBS, 0.00702 µM
# [26] = RPMI 5 mM glucose + 10% dialyzed FBS, 0.0211 µM
# [27] = RPMI 5 mM glucose + 10% dialyzed FBS, 0.0632 µM
# [28] = RPMI 5 mM glucose + 10% dialyzed FBS, 0.19 µM
# [29] = RPMI 5 mM glucose + 10% dialyzed FBS, 0.569 µM
# [30] = RPMI 5 mM glucose + 10% dialyzed FBS, 1.71 µM
# [31] = RPMI 5 mM glucose + 10% dialyzed FBS, 5.12 µM
# [32] = RPMI 5 mM glucose + 10% dialyzed FBS, 15.4 µM
# [33] = RPMI 5 mM glucose + 10% dialyzed FBS, 46.1 µM
Compound,cell viability [1] [%],cell viability [2] [%],cell viability [3] [%],cell viability [4] [%],cell viability [5] [%],cell viability [6] [%],cell viability [7] [%],cell viability [8] [%],cell viability [9] [%],cell viability [10] [%],cell viability [11] [%],cell viability [12] [%],cell viability [13] [%],cell viability [14] [%],cell viability [15] [%],cell viability [16] [%],cell viability [17] [%],cell viability [18] [%],cell viability [19] [%],cell viability [20] [%],cell viability [21] [%],cell viability [22] [%],cell viability [23] [%],cell viability [24] [%],cell viability [25] [%],cell viability [26] [%],cell viability [27] [%],cell viability [28] [%],cell viability [29] [%],cell viability [30] [%],cell viability [31] [%],cell viability [32] [%],cell viability [33] [%]
CC(O)C1C2C(C)\C(=C(/N2C1=O)C(O)=O)SC3CNC(C3)C(=O)N(C)C (configuration not stated),75.7,78.3,85.5,94.8,99,82.5,87.7,97.5,82.8,81.7,88.7,86.1,84.1,85.2,89.1,81.7,84.4,82.5,81.6,82.8,88.4,86.3,68.1,73.9,72.6,84.1,84.2,86.2,85.6,88.4,82.6,91.5,91
Cn1cc(C[C@@H](N)C(=O)O)c2ccccc21,107,106,108,106,92.4,111,100,101,101,90.8,94.9,90.4,90.7,96.5,107,89.6,95.1,95.6,95.5,92.6,97.9,81.2,90,90.1,93.4,94,101,98.9,93.8,88.9,93.3,87,76.7
C[S+](=O)([O-])c1ccc(Oc2cc(F)cc(C#N)c2)c2c1[C@H](O)C(F)(F)C2,96.5,123,123,112,119,119,139,126,112,120,121,92.7,111,101,103,119,117,101,112,124,108,114,97.4,102,103,109,111,127,123,125,117,125,114
Cc1c[nH]c(-c2cnc(NCCNc3ccc(C#N)cn3)nc2-c2ccc(Cl)cc2Cl)n1,72.9,85.8,94.2,78.5,87.3,101,89.5,93.3,80.3,67.5,57.7,66.4,79.7,83.7,80.7,96.7,83.5,77.5,85.7,76.5,81.3,64.2,76.7,80.8,90.1,89.2,83.6,90.2,85.9,94.6,64.8,88,64.7
C=CCc1ccc(O)c(-c2ccc(O)c(CC=C)c2)c1,111,117,112,120,112,94.8,90.6,93.4,84.3,86.8,88.7,107,105,119,118,122,112,95.3,61,51,60.4,62.6,114,106,107,112,119,111,91.4,54.7,47.9,58.9,53.8
NC(=O)NO,88.2,102,110,110,116,100,88.9,84.9,16.6,3.7,2.4,83.9,90.8,85.6,88.7,86.1,90.2,90.8,94.6,37.3,10.4,1.27,81.9,90.4,92.6,95.3,98,87.2,91.1,96,33,10,1.29
CCOC(=O)\C1=C\[C@@H](OC(CC)CC)[C@H](NC(C)=O)[C@@H](N)C1,90.4,86.1,94.3,98.9,93.7,107,92.5,93.1,84,86.9,86.4,91.9,92.5,94.9,91.9,95.1,98.9,95.7,102,88.9,103,82.7,84.4,93.4,102,87.4,94.9,106,93.6,91.7,99.3,103,87.1
O=C1NC(=O)/C(=C/c2ccc(-c3ccc(F)cc3O)o2)S1,106,126,125,130,127,114,125,91.8,103,82.7,72.9,113,108,104,114,112,105,103,94.7,95.7,92.7,84.9,112,117,114,103,113,116,91.6,93.9,91.7,75.8,66.9
C[C@](N)(Cc1ccc(O)c(O)c1)C(=O)O,84.9,84.3,96.8,74.9,89.4,82,76.7,69.9,92.9,76.8,72.6,86.4,80.1,93.9,82,81.7,81,76.5,78.4,82.9,76.9,74.1,88.3,88.5,85,87.1,92.2,85.7,78.1,87.2,82.3,79,77.9
CCOc1cc(CC(=O)N[C@@H](CC(C)C)c2ccccc2N2CCCCC2)ccc1C(=O)O,117,120,139,138,141,126,46.7,43.4,37,41.1,34.7,,,,,,,,,,,,,,,,,,,,,,
CNC(=O)C1=CC=C(C)C(=C1)N2C(=C/C(=C(/Br)C2=O)OCC3=C(F)C=C(F)C=C3)\C,,,,,,,,,,,,114,128,122,127,127,151,139,137,136,145,130,,,,,,,,,,,
CCOc1ccc(Cc2cc([C@@H]3O[C@H](CO)[C@@H](O)[C@H](O)[C@H]3O)ccc2Cl)cc1,,,,,,,,,,,,114,133,124,125,138,128,128,136,124,133,129,,,,,,,,,,,
C[C@H]1COC/2=C1/C(=O)C(=O)C3=C4CCCC(C)(C)C4=CC=C23,114,131,121,116,154,146,137,163,158,132,134,,,,,,,,,,,,123,129,120,136,135,129,148,156,141,134,151
